Each structure is given as a SMILES string. Like-named read-outs stand apart in the source and are kept apart here.

The text below walks through data of patent US6586442B2, “Benzofurane derivatives, their preparation process, their use as medicaments and the pharmaceutical compositions containing them” (priority 1999, dated 2003).

In this assay the target is human αvβ3 receptor (Homo sapiens, UniProt P05106+P06756). Put plainly: Kistrin/Vitronectin Receptor (αvβ3) ELISA test. In kind it is binding. Here is the method: Kistrin/Vitronectin Receptor (αvβ3) ELISA Test Protocol:
96-well MaxiSorp plates are coated overnight at […] with 100 μl of Kistrin at 1 μg/ml (dilution in coating buffer: 0.05M (carbonate)/NaOH pH 9.6. The next day, the wells are emptied and the ligands (kistrin) are then fixed (fixation buffers: PBS containing 0.5% BSA (pH=7.4)) for 1 hour at ambient temperature under gentle agitation of 125 rpm. The wells are washed six times (washing buffer: PBS containing 0.05% Tween 20 (pH 7.7) then the following is added per well and in this order:
40 μl of incubation buffer
10 μl of the dilution of the product to be tested (the products are diluted in a 50:50 DMSO/water mixture)
50 μl of human αvβ3 receptor (cf Pytel et al. Methods Enzymol. (1987) 144 (Dilution in incubation buffer, adapted according to the batch of receptor and according to the ligand). The ligand, the αvβ3 receptor and the products to be studied are incubated for 3 hours at ambient temperature with gentle agitation of 125 rpm.
The wells are again washed six times, then incubated for 2 hours at ambient temperature with gentle agitation of 125 rpm, in the presence of 100 μl of anti-receptor antibody coupled to a peroxidase (The 4B12-HRP antibody is diluted in incubation buffer (50 mM TRIS pH 7.4; 0.5% BSA; 0.05% Tween 20; 1 mM MnCl2; 50 μM CaCl2; 50 μM MgCl2; 100 mM NaCl). The dilution is to be adapted according to the batch of receptor.
The wells are then washed six times before measurement of the ligand-receptor bond is carried out using a peroxidase developer kit (TBM Microwell Peroxidase Substrate System Kirkegaard; Ref cat 50-76-00).
This kit contains a flask A of substrate (3,3′,5,5′-tetramethylebenzidine at 0.4 g/l) and a flask B (H2O2 to 0.02% in Citrate/Citric acid). Extemporaneously, one volume of A is mixed with one volume of B, then the reaction mixture is distributed at a rate of 100 μl/wells.
The enzymatic reaction develops between 6 to 10 minutes for Kistrin/αvβ3 then its development is stopped by the addition of 100 μl of 1M phosphoric acid. The optical density is determined at 450 nm.
Expression of the results
The following curve is plotted: the bond percentage as a function of the logarithm of each concentration of the tested product.
For each product IC50 is determined according to the following formula: IC50=(B0+Bmin)/2
B0=Maximum bond in the absence of any product
Bmin=Minimum bond in the presence of the highest concentration of the product.
On the technique in general: In an ELISA, binding on a coated surface is turned into a signal by an enzyme label.

[1] abbreviates: Kistrin-coated plates, human αvβ3 receptor, 3 hours at ambient temperature, OD 450 nm, read-out: K/VnR IC50.

Chain of human αvβ3 receptor (P06756 31-889 limits assumed): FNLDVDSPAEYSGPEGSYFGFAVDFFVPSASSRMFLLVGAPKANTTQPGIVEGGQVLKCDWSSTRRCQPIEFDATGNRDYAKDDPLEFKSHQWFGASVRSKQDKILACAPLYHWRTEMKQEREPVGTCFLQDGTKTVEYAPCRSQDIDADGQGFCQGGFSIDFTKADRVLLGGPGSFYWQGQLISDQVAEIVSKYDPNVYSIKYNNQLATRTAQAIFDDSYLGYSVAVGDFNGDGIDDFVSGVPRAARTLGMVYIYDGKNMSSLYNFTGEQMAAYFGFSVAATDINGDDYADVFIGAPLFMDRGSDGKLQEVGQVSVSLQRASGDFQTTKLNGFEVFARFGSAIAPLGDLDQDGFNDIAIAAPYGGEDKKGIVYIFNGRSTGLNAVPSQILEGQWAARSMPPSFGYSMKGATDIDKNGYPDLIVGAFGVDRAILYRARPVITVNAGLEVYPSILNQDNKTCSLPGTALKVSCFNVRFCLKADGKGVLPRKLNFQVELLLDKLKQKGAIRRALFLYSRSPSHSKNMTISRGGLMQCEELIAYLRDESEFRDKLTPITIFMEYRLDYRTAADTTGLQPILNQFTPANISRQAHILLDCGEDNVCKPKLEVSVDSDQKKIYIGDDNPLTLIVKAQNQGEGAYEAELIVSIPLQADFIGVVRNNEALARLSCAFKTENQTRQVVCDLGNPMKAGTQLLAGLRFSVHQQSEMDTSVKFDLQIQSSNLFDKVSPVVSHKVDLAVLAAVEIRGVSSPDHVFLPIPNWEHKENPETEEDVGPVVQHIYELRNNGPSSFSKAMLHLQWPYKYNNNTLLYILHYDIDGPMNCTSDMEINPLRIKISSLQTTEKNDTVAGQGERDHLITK
Chain of human αvβ3 receptor (P06756 891-1048 limits assumed): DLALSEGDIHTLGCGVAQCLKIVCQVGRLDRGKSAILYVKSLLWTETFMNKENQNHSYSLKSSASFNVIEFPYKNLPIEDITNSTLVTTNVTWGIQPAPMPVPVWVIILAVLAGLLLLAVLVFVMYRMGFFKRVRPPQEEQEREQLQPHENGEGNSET
Chain of human αvβ3 receptor (P05106 27-788): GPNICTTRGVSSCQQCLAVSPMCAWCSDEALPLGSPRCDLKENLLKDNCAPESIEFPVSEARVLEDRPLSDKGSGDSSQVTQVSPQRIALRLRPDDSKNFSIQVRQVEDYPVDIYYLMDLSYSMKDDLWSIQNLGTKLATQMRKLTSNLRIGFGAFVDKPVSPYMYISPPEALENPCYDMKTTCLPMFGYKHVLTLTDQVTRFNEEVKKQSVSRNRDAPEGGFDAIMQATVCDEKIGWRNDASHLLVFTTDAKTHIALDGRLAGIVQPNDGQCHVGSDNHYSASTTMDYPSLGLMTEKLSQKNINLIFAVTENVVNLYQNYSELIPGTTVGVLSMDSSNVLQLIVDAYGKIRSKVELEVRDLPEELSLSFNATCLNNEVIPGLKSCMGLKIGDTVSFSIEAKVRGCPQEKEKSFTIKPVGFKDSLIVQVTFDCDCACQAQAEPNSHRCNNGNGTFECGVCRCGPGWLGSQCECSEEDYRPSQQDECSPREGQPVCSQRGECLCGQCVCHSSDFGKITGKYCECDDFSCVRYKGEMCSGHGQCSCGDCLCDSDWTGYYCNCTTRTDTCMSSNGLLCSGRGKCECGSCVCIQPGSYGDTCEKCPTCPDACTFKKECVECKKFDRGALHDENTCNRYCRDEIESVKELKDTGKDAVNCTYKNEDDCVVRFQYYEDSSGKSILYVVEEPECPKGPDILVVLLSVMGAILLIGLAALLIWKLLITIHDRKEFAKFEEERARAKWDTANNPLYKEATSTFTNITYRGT

For the molecule `O=C(CCc1ccc2oc(CC(NC(=O)OCC34CC5CC(CC(C5)C3)C4)C(=O)O)cc2c1)NC1=NCCCN1` (stereo not drawn) [Example 5, Mono(trifluoroacetate) of 5-[3-oxo-3-[(1,4,5,6-tetrahydro-2-pyrimidinyl)amino]propyl]-α-[[[(tricyclo[3.3.1.1^3,7]dec-1-yl)methoxy]carbonyl]amino]-2-benzofuranpropanoic acid], the IC50 under setting [1] was 45 nM.
For the molecule `O=C(CCc1ccc2oc(CC(NS(=O)(=O)NC(=O)OCC34CC5CC(CC(C5)C3)C4)C(=O)O)cc2c1)NC1=NCCCN1` (stereo not drawn) [Example 6, 5-[3-oxo-3-[(1,4,5,6-tetrahydro-2-pyrimidinyl)amino]-propyl]-α-[[[[[(tricyclo [2.3.1.1^3,7]dec-1-yl)methoxy]-carbonyl]amino]sulphonyl]amino]-2-benzofuranpropanoic acid], the IC50 under setting [1] is 65 nM.
With `CCCS(=O)(=O)NC(Cc1cc2cc(CCC(=O)NC3=NCCCN3)ccc2o1)C(=O)O` (centres unmarked) [Example 11], the IC50 under setting [1] stood at 5.7 nM.
In the case of `O=C(CCc1ccc2oc(CC(NS(=O)(=O)NCc3ccccc3)C(=O)O)cc2c1)NC1=NCCCN1` (centres unmarked) [Example 8, Mono(trifluoroacetate) ofα-[[[(phenylmethyl)-amino]sulphonyl]amino]-5-[3-oxo-3-[(1,4,5,6-tetrahydro-2-pyrimidinyl)amino]propyl]-2-benzofuranpropanoic acid], the IC50 under setting [1] is 8.7 nM.
With `O=C(CCc1ccc2oc(CC(NS(=O)(=O)NC(=O)OCc3ccccc3)C(=O)O)cc2c1)NC1=NCCCN1` (centres unmarked) [Example 7], the IC50 under setting [1] amounted to 10 nM.
On to `O=C(CCc1ccc2oc(CC(NC(=O)OCc3ccccc3)C(=O)O)cc2c1)NC1=NCCCN1` (stereo not drawn) [Example 1, 5-[3-oxo-3-[(1,4,5,6-tetrahydro-2-pyrimidinyl)amino)propyl]-α-[[(phenylmethoxy)carbonyl]-amino]-2-benzofuranepropanoic acid], for which the IC50 under setting [1] turned out to be 9 nM.
`CC(C)OC(=O)C(Cc1cc2cc(CCC(=O)NC3=NCCCN3)ccc2o1)NS(=O)(=O)c1cccc2ccccc12` (centres unmarked) [Example 14] yielded an IC50 of 3700 nM.
On to `O=C(CCc1ccc2oc(CC(NS(=O)(=O)c3cccc4ccccc34)C(=O)O)cc2c1)NC1=NCCCN1` (stereo not drawn) [Example 13, α-[(1-naphthalenylsulphonyl)amino]-5-[3-oxo-3-[(1,4,5,6-tetrahydro-2-pyrimidinyl)amino]propyl]—2-benzofuranpropanoic acid], for which the IC50 under setting [1] was determined as 5.5 nM.
On to `CC(C)c1ccc(S(=O)(=O)NC(Cc2cc3cc(CCC(=O)NC4=NCCCN4)ccc3o2)C(=O)O)cc1` (stereo not drawn) [Example 10, α-[[[4-(1-methylethyl)phenyl]sulphonyl]amino]-5-(3-oxo-3-[(1,4,5,6-tetrahydro-2-pyrimidinyl)amino]propyl]-2-benzofuranpropanoic acid], for which, under setting [1], the IC50 was 9.1 nM.
`CS(=O)(=O)NC(Cc1cc2cc(CCC(=O)NC3=NCCCN3)ccc2o1)C(=O)O` (centres unmarked) [Example 12]: the IC50 under setting [1] was 6.7 nM.
With `CC(C)(C)c1ccc(S(=O)(=O)NC(Cc2cc3cc(CCC(=O)NC4=NCCCN4)ccc3o2)C(=O)O)cc1` (stereo not drawn) [Example 9, α-[[[4-(1,1-dimethylethyl)phenyl]sulphonyl]amino]-5-(3-oxo-3-[(1,4,5,6-tetrahydro-2-pyrimidinyl)amino]propyl]-2-benzofuranpropanoic acid], the IC50 under setting [1] is 15 nM.
